Experimental data: PubChem BioAssay (NCI)
Where “and” joins values, the source holds several entries; their conditions need not be identical. Equal values may be shown once.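 Where inhibition never reached the appropriate level, the endpoint shown equals the highest concentration tested. Otherwise, values were interpolated linearly from a five-concentration, 48-hour dose response in 96-well plates. At the GI50, growth is halved. TGI: total growth inhibition.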

Assays:
Experiment in all cases: inhibition of tumour cell growth, NCI panel, 48 h
[1] = test system: NCI-H226 lung
[2] = test system: LXFL 529 NSCLC
[3] = test system: OVCAR-3 ovarian
[4] = test system: HOP-62 NSCLC
[5] = test system: DMS 114 small cell lung
[6] = test system: UACC-257 melanoma
[7] = test system: SF-539 CNS
[8] = test system: NCI-H522 lung
[9] = test system: MDA-MB-435
[10] = test system: HCT-116 colon

Structure (SMILES)	TGI [1] [µM]	TGI [2] [µM]	TGI [3]	TGI [4]	TGI [5]	TGI [6]	TGI [7]	TGI [8]	TGI [9] [µM]	TGI [10] [µM]	GI50 [1] [µM]	GI50 [2] [µM]	GI50 [3] [µM]	GI50 [4]	GI50 [5] [µM]	GI50 [6] [µM]	GI50 [7] [µM]	GI50 [8] [µM]	GI50 [10] [µM]
O=C(O)COc1ccc(C(=O)/C(SS/C(C(=O)c2ccc(OCC(=O)O)c(Cl)c2Cl)=C2\C=C(c3ccc(Br)cc3)SS2)=C2/C=C(c3ccc(Br)cc3)SS2)c(Cl)c1Cl	42.1	8.98	21.7 µM	54.1 µM	6.76 µM	> 67.4 µM	26.2 µM	3.95 µM	> 100	22.1	–	–	–	–	–	–	–	–	–
Cn1nnc2c(C(N)=O)ncn2c1=O	> 100	> 100	> 100 µM	> 100 µM	> 100 µM	> 100 µM	> 100 µM	> 100 µM	> 100	> 100	–	–	–	–	–	–	–	–	–
C/C(=C\Cc1cc(O)ccc1O)CCc1c(C)c(O)c(O)c(C=O)c1C	98	32.4	43.2 µM	–	34 µM	–	42.1 µM	21.4 µM	–	40.3	–	–	–	–	–	–	–	–	–
Nc1ccc(C(=O)NN2C(=O)C(Cl)C2c2cccc(O)c2)cc1 (stereo unspecified)	41.4	24.3	29.9 µM	30.7 µM	19.9 µM	41.7 µM	31.6 µM	3.29 µM	–	25.8	–	–	–	–	–	–	–	–	–
C#C[C@H]1CCCCCC1O (stereo partly specified)	> 100	> 100	> 100 µM	> 100 µM	> 100 µM	> 100 µM	> 100 µM	> 100 µM	–	> 100	–	–	–	–	–	–	–	–	–
CCC[CH2][Sn]([CH2]CCC)([O]C(=O)/C=C/c1ccccc1F)[O]C(=O)/C=C/c1ccccc1F	2.04	0.304	2.31 µM	4.71 µM	1.46 µM	1.76 µM	2.56 µM	0.185 µM	–	2.52	0.775	0.131	1.07	2.12 µM	0.445	0.465	1.27	0.0798	1.05
COC(=O)C#CCC1CCCC1C1SCCS1 (stereo unspecified)	> 100	> 100	> 100 µM	> 100 µM	> 100 µM	> 100 µM	> 100 µM	> 100 µM	–	> 100	–	–	–	–	–	–	–	–	–
CC(=O)Nc1ccc(C(=O)NN2C(=O)C(Cl)C2c2ccc(O)cc2)cc1 (stereo unspecified)	> 100	> 100	> 100 µM	> 100 µM	–	> 100 µM	> 100 µM	> 100 µM	–	> 100	–	–	–	–	–	–	–	–	–
CCC1C(=O)OCc2c1cc1n(c2=O)C(CC)c2c-1nc1ccccc1c2Cl (stereo unspecified)	> 100	> 100	47.5 µM	87.1 µM	–	92.6 µM	41.1 µM	35 µM	–	–	–	–	–	–	–	–	–	–	–
CCN(CC)CCCC(C)Nc1c(Sc2cnc3cc(Cl)ccc3c2NC(C)CCCN(CC)CC)cnc2cc(Cl)ccc12 (stereo unspecified)	3.52	3.38	3.78 µM	–	–	3.49 µM	–	3.15 µM	–	2.95	–	–	–	–	–	–	–	–	–
O=C(N/C(=C\c1cc(Cl)ccc1Cl)c1nc2ccc(Cl)cc2[nH]1)c1ccccc1	42.4	28.1	35.1 µM	32.3 µM	29.8 µM	28.3 µM	35.1 µM	25 µM	–	22.3	–	–	–	–	–	–	–	–	–
COc1cccc2c1[C@H]1CO[C@H]3C4C[C@H](C(=O)O)C([C@@H](C2)N13)N4C (stereo partly specified)	5.59	4.98	2.99 µM and 3.94 µM	9.75 µM and 5.44 µM	4.66 µM and 0.803 µM	5.15 µM and 1.81 µM	2.62 µM and 2.04 µM	0.914 µM and 0.109 µM	0.204	–	–	–	–	3.92 µM and 1.72 µM	0.187	0.703	0.684	0.0497	–
O=[N+]([O-])c1ccc2c(Nc3ccccc3-c3ccccc3Nc3c4ccccc4nc4cc([N+](=O)[O-])ccc34)c3ccccc3nc2c1	32.4	> 35.1	29.1 µM	41.4 µM	27.3 µM	49.8 µM	39.5 µM	17.4 µM	3.8	6.38	–	–	–	–	–	–	–	–	–
